Earlier results as cited in US6939965B2, “Process of manufacture of 1,3-oxathiolane nucleosides using titanium trichloride mono-isopropoxide” (Gilead Sciences, Inc., priority 1998, dated 2005).

Assays:
HIV [1] = details: racemic mixture, compared with AZT
HIV [2] = test system: HIV

**Q.** Which “activity against HIV relative to AZT” value (HIV [1]) does the source give for `Nc1ccn(C2CSC(CO)O2)c(=O)n1` (racemic) [BCH-189, 2-hydroxymethyl-5-(cytosin-1-yl)-1,3-oxathiolane] here?
**A.** approximately the sane activity against HIV as AZT

**Q.** Which HIV activity (HIV [2]) does the source give for `Nc1nc(=O)n([C@@H]2CS[C@H](CO)O2)cc1F` (relative stereo) [FTC, cis-2-hydroxymethyl-5-(5-fluorocytosin-1-yl)-1,3-oxathiolane] here?
**A.** potent HIV activity
